Data published in patent US5008266A, “4(3H)-quinazolinone derivatives and pharmaceutical compositions” (Nisshin Flour Milling Co., Ltd., priority 1987, dated 1991).
Like-named read-outs stand apart in the source and are kept apart here.

Tests used:
[1] = tested on: indomethacin induced ulcer; assay: antiulcer activity: suppression of indomethacin induced ulcer in mice; type: in vivo, ddY series male mice; details: for inhibition in vivo at 100 mg/kg: Mus musculus, po, read-out: Suppression rate of indomethacin induced ulcer
Experimental: The antiulcer activity of the compounds of this invention was determined by the following method. Four-week-old ddY series male mice were used as the test animals after they were fasted for 24 hours. Each test compound suspended in a 1% gum arabic solution was administerd to the stomach of each mouse at a dose of 100 mg/kg, and then, after 30 minutes, 20 mg/kg of indomethacin was administered orally. Four hours after the administration of indomethacin, the stomach of mouse was extirpated and the length of ulcers was measured. Then, the ulcer index was determined by the total sum of the scores as calculated in Table 1. | TABLE 1 |Length of ulcer | 0.5 mm< 1 mm< 2 mm< 3 mm< |Score 0.5 1 2 3 The mean ulcer index of each group was calculated and the suppression rate against the control group in terms of difference in the mean ulcer index was determined.

reversion test = type: cell-based
[2] = acute toxicity, LD50 (P.O.); details: in vivo, po
[3] = background, cited from earlier work
[4] = 100 mg/kg, p.o., ddY male mice, indomethacin 20 mg/kg orally 30 minutes later, ulcers measured 4 hours after indomethacin

| SMILES | inhibition in vivo at 100 mg/kg [1, 4] | further results |
| --- | --- | --- |
| O=c1c2ccccc2nc(SCc2nc3ccccc3[nH]2)n1-c1ccccc1 [2-(2-Benzimidazolylmethylthio)-3-phenyl-4(3H)-quinazolinone] | 81% |  |
| CCN(CC)CCSc1nc2ccccc2c(=O)n1-c1ccccc1 [2-(2-Diethylaminoethylthio)-3-phenyl-4(3H)-quinazolinone] | 45% |  |
| COc1ccc(-n2c(SCc3nccc(OC)c3C)nc3ccc(C)cc3c2=O)cc1 [2-[(4-Methoxy-3-methylpyridin-2-yl)methylthio]-3-(4-methoxyphenyl)-6-methyl-4(3H)-quinazolinone] | 49% |  |
| COc1cc(CSc2nc3ccc(C)cc3c(=O)n2-c2ccccc2)ncc1C [2[(4-Methoxy-5-methylpyridin-2-yl)methylthio]-6-methyl-3-phenyl-4(3H)-quinazolinone] | 44% |  |
| CCn1c(SCc2ccccn2)nc2ccccc2c1=O [3-Ethyl-2-(2-pyridylmethylthio)-4(3H)-quinazolinone] | 96% | reversion test (reversion test): negative; LD50 [2]: > 3000 mg/kg |
| O=c1c2ccccc2nc(SCc2ccccn2)n1CCc1ccccc1 [3-Phenethyl-2-(2-pyridylmethylthio)-4(3H)-quinazolinone] | 60% |  |
| O=c1c2ccccc2nc(SCc2cccnc2)n1-c1ccccc1 [3-Phenyl-2-(3-pyridylmethylthio)-4(3H)-quinazolinone] |  | Suppression rate of indomethacin induced ulcer [1, 4]: 63 |
| Cc1ccc2nc(SCc3ccccn3)n(-c3ccccc3)c(=O)c2c1 [6-Methyl-3-phenyl-2-(2-pyridylmethylthio)-4(3H)-quinazolinone] | 38% |  |
| CN/C(=N/CCSCc1nc[nH]c1C)NC#N [Cimetidine] |  | inhibition in vivo at 100 mg/kg ([1]; 4 h): 40%; side effects ([3]; known): gynecomatism; recurrence of ulcer after suspension of administration ([3]; reported): numbers of cases are reported about recurrence of ulcer |
